{"source": "patent US10376520B2", "about": "“Methods for the treatment of cardiovascular disorders” (Galapagos NV, priority 2015, dated 2019)", "test_system": "Subjects With Active Crohn's Disease", "assay": "[HDL] determination, Study 5 (Crohn's disease)", "format": "in vivo, human", "settings": "for [HDL] Mean CFB - 10 weeks results: 200 mg q.d.", "description": "Double-Blind, Randomized, Placebo-Controlled, Multi-Centre Study to Investigate the Efficacy and Safety of Compound 1 in Subjects With Active Crohn's Disease With Evidence of Mucosal Ulceration.\nThis is a double-blind, randomized, placebo-controlled, multi-centre Phase 2 study to investigate the efficacy and safety of Compound 1 administered once daily for the treatment of active CD with evidence of mucosal ulceration. The pharmacokinetics (including a PK substudy) and pharmacodynamics of Compound 1 and metabolite in CD will also be characterised.\nA total of 180 eligible subjects will be randomized to receive Compound 1 or placebo in addition to their stable background treatment (eg, corticosteroids, aminosalicylates, or CD-related antibiotics). The study will consist of 2 parts, with total treatment duration of 20 weeks. Randomization in Part 1 will be stratified according the subject's previous anti-TNF exposure/response, CRP level at Screening, and oral corticosteroid use at visit Day −1.\nAfter the first 10 weeks of treatment in Part 1, patients will be re-randomized for Part 2 as shown in the diagram below and will be stratified according to the subject's clinical response, previous anti-TNF exposure/response, and oral corticosteroid use at visit Day −1.\nThe following assays were conducted at Eurofins Global Central Laboratory, Bergschot 71, 4817 PA Breda, The Netherlands, and at Quest Diagnostics, Clinical Trials, Quest House, 125-135 Staines Road, Hounslow, Middlesex, TW3 3JB, United Kingdom. The assays for Study 5 were performed at BARC Europe, 3B, Industrie Park, Zwijnaarde, B-9052 Ghent, Belgium.\nThis assay relies on a homogeneous enzymatic colorimetric test. In the presence of magnesium ions, dextran sulfate selectively forms water-soluble complexes with LDL, VLDL and chylomicrons which are resistant to PEG-modified enzymes.\nThe cholesterol concentration of [HDL]-cholesterol is determined enzymatically by cholesterol esterase and cholesterol oxidase coupled with PEG to the amino groups (approx. 40%).\nIn the presence of peroxidase, the hydrogen peroxide generated reacts with 4-amino-antipyrine and Sodium N-(2-hydroxy-3-sulfopropyl)-3,5-dimethoxyaniline (HSDA) to form a purple-blue dye. The color intensity of this dye is directly proportional to the cholesterol concentration and is measured photometrically.\nHuman serum and plasma samples [HDL] determination was done on a Roche/Hitachi Cobas c 701/702 system which automatically calculate the analyte concentration of each sample. Samples containing precipitates are centrifuged before performing the assay.", "key": {"[1]": {"settings": "200 mg q.d. week 0 to 10, to 100 mg q.d. week 10 to 20, week 4"}, "[2]": {"settings": "200 mg q.d. week 0 to 10, to 100 mg q.d. week 10 to 20, week 6"}, "[3]": {"settings": "200 mg q.d. week 0 to 10, to 100 mg q.d. week 10 to 20, week 10"}, "[4]": {"settings": "200 mg q.d. week 0 to 10, to 100 mg q.d. week 10 to 20, week 12"}, "[5]": {"settings": "200 mg q.d. week 0 to 10, to 100 mg q.d. week 10 to 20, week 16"}, "[6]": {"settings": "200 mg q.d. week 0 to 10, to 100 mg q.d. week 10 to 20, week 20"}, "[7]": {"settings": "200 mg q.d. week 0 to 10, to placebo week 10 to 20, week 2"}, "[8]": {"settings": "200 mg q.d. week 0 to 10, to placebo week 10 to 20, week 4"}, "[9]": {"settings": "200 mg q.d. week 0 to 10, to placebo week 10 to 20, week 6"}, "[10]": {"settings": "200 mg q.d. week 0 to 10, to placebo week 10 to 20, week 10"}, "[11]": {"settings": "200 mg q.d. week 0 to 10, to placebo week 10 to 20, week 12"}, "[12]": {"settings": "200 mg q.d. week 0 to 10, to placebo week 10 to 20, week 16"}, "[13]": {"settings": "200 mg q.d. week 0 to 10, to placebo week 10 to 20, week 20"}, "[14]": {"settings": "continued 200 mg q.d. (N = 77), week 2"}, "[15]": {"settings": "continued 200 mg q.d. (N = 77), week 4"}, "[16]": {"settings": "continued 200 mg q.d. (N = 77), week 6"}, "[17]": {"settings": "continued 200 mg q.d. (N = 77), week 10"}, "[18]": {"settings": "continued 200 mg q.d. (N = 77), week 12"}, "[19]": {"settings": "continued 200 mg q.d. (N = 77), week 16"}, "[20]": {"settings": "continued 200 mg q.d. (N = 77), week 20"}, "[21]": {"settings": "placebo week 0 to 10, then 100 mg q.d. (N = 22), week 12"}, "[22]": {"settings": "placebo week 0 to 10, then 100 mg q.d. (N = 22), week 16"}, "[23]": {"settings": "placebo week 0 to 10, then 100 mg q.d. (N = 22), week 20"}, "[24]": {"settings": "placebo week 0 to 10, to 100 mg q.d. week 10 to 20, week 12"}, "[25]": {"settings": "placebo week 0 to 10, to 100 mg q.d. week 10 to 20, week 16"}, "[26]": {"settings": "placebo week 0 to 10, to 100 mg q.d. week 10 to 20, week 20"}}}
{"smiles": "O=C(Nc1nc2cccc(-c3ccc(CN4CCS(=O)(=O)CC4)cc3)n2n1)C1CC1", "note": "[Compound 1, cyclopropanecarboxylic acid {5-[4-(1,1-dioxo-thiomorpholin-4-ylmethyl)-phenyl]-[1,2,4]triazolo[1,5-a]pyridin-2yl}-amide]", "values": [{"measurement": "[HDL] Mean CFB - 20 weeks results", "setting": "[1]", "result": 25.33, "unit": "%"}, {"measurement": "[HDL] Median CFB - 10 weeks results", "setting": "[1]", "result": 16.75, "unit": "%"}, {"measurement": "[HDL] Mean CFB - 20 weeks results", "setting": "[2]", "result": 25.93, "unit": "%"}, {"measurement": "[HDL] Median CFB - 10 weeks results", "setting": "[2]", "result": 23.04, "unit": "%"}, {"measurement": "[HDL] Mean CFB - 20 weeks results", "setting": "[3]", "result": 26.29, "unit": "%"}, {"measurement": "[HDL] Median CFB - 10 weeks results", "setting": "[3]", "result": 19.61, "unit": "%"}, {"measurement": "[HDL] Mean CFB - 20 weeks results", "setting": "[4]", "result": 14.27, "unit": "%"}, {"measurement": "[HDL] Median CFB - 10 weeks results", "setting": "[4]", "result": 10.66, "unit": "%"}, {"measurement": "[HDL] Mean CFB - 20 weeks results", "setting": "[5]", "result": 11.19, "unit": "%"}, {"measurement": "[HDL] Median CFB - 10 weeks results", "setting": "[5]", "result": 2.24, "unit": "%"}, {"measurement": "[HDL] Mean CFB - 20 weeks results", "setting": "[6]", "result": 15.54, "unit": "%"}, {"measurement": "[HDL] Median CFB - 10 weeks results", "setting": "[6]", "result": 10.18, "unit": "%"}, {"measurement": "[HDL] Mean CFB - 20 weeks results", "setting": "[7]", "result": 13.75, "unit": "%"}, {"measurement": "[HDL] Median CFB - 10 weeks results", "setting": "[7]", "result": 13.54, "unit": "%"}, {"measurement": "[HDL] Mean CFB - 20 weeks results", "setting": "[8]", "result": 23.62, "unit": "%"}, {"measurement": "[HDL] Median CFB - 10 weeks results", "setting": "[8]", "result": 27.96, "unit": "%"}, {"measurement": "[HDL] Mean CFB - 20 weeks results", "setting": "[9]", "result": 13.52, "unit": "%"}, {"measurement": "[HDL] Median CFB - 10 weeks results", "setting": "[9]", "result": 13.45, "unit": "%"}, {"measurement": "[HDL] Mean CFB - 20 weeks results", "setting": "[10]", "result": 14.87, "unit": "%"}, {"measurement": "[HDL] Median CFB - 10 weeks results", "setting": "[10]", "result": 15.66, "unit": "%"}, {"measurement": "[HDL] Mean CFB - 20 weeks results", "setting": "[11]", "result": "−3.87", "unit": "%"}, {"measurement": "[HDL] Median CFB - 10 weeks results", "setting": "[11]", "result": "−1.75", "unit": "%"}, {"measurement": "[HDL] Mean CFB - 20 weeks results", "setting": "[12]", "result": "−7.46", "unit": "%"}, {"measurement": "[HDL] Median CFB - 10 weeks results", "setting": "[12]", "result": "−3.07", "unit": "%"}, {"measurement": "[HDL] Mean CFB - 20 weeks results", "setting": "[13]", "result": "−8.40", "unit": "%"}, {"measurement": "[HDL] Median CFB - 10 weeks results", "setting": "[13]", "result": "−4.82", "unit": "%"}, {"measurement": "[HDL] Mean CFB - 10 weeks results", "setting": "week 2", "result": 17.940, "unit": "%"}, {"measurement": "[HDL] Mean CFB - 10 weeks results", "setting": "week 4", "result": 19.414, "unit": "%"}, {"measurement": "[HDL] Mean CFB - 10 weeks results", "setting": "week 6", "result": 20.199, "unit": "%"}, {"measurement": "[HDL] Mean CFB - 10 weeks results", "setting": "week 10", "result": 19.734, "unit": "%"}, {"measurement": "[HDL] Mean CFB - 20 weeks results", "setting": "[14]", "result": 0.23, "unit": "mmol/L"}, {"measurement": "[HDL] Median CFB - 20 weeks results", "setting": "[14]", "result": 0.21, "unit": "mmol/L"}, {"measurement": "[HDL] Mean CFB - 20 weeks results", "setting": "[15]", "result": 0.18, "unit": "mmol/L"}, {"measurement": "[HDL] Median CFB - 20 weeks results", "setting": "[15]", "result": 0.16, "unit": "mmol/L"}, {"measurement": "[HDL] Mean CFB - 20 weeks results", "setting": "[16]", "result": 0.24, "unit": "mmol/L"}, {"measurement": "[HDL] Median CFB - 20 weeks results", "setting": "[16]", "result": 0.21, "unit": "mmol/L"}, {"measurement": "[HDL] Mean CFB - 20 weeks results", "setting": "[17]", "result": 0.22, "unit": "mmol/L"}, {"measurement": "[HDL] Median CFB - 20 weeks results", "setting": "[17]", "result": 0.25, "unit": "mmol/L"}, {"measurement": "[HDL] Mean CFB - 20 weeks results", "setting": "[18]", "result": 0.20, "unit": "mmol/L"}, {"measurement": "[HDL] Median CFB - 20 weeks results", "setting": "[18]", "result": 0.15, "unit": "mmol/L"}, {"measurement": "[HDL] Mean CFB - 20 weeks results", "setting": "[19]", "result": 0.17, "unit": "mmol/L"}, {"measurement": "[HDL] Median CFB - 20 weeks results", "setting": "[19]", "result": 0.20, "unit": "mmol/L"}, {"measurement": "[HDL] Mean CFB - 20 weeks results", "setting": "[20]", "result": 0.10, "unit": "mmol/L"}, {"measurement": "[HDL] Median CFB - 20 weeks results", "setting": "[20]", "result": 0.15, "unit": "mmol/L"}, {"measurement": "[HDL] Mean CFB - 20 weeks results", "setting": "[21]", "result": 0.03, "unit": "mmol/L"}, {"measurement": "[HDL] Median CFB - 20 weeks results", "setting": "[21]", "result": 0.12, "unit": "mmol/L"}, {"measurement": "[HDL] Mean CFB - 20 weeks results", "setting": "[22]", "result": 0.09, "unit": "mmol/L"}, {"measurement": "[HDL] Median CFB - 20 weeks results", "setting": "[22]", "result": 0.12, "unit": "mmol/L"}, {"measurement": "[HDL] Mean CFB - 20 weeks results", "setting": "[23]", "result": 0.00, "unit": "mmol/L"}, {"measurement": "[HDL] Median CFB - 20 weeks results", "setting": "[23]", "result": 0.10, "unit": "mmol/L"}, {"measurement": "[HDL] Mean CFB - 20 weeks results", "setting": "[24]", "result": 5.75, "unit": "%"}, {"measurement": "[HDL] Median CFB - 10 weeks results", "setting": "[24]", "result": 8.64, "unit": "%"}, {"measurement": "[HDL] Mean CFB - 20 weeks results", "setting": "[25]", "result": 10.06, "unit": "%"}, {"measurement": "[HDL] Median CFB - 10 weeks results", "setting": "[25]", "result": 8.63, "unit": "%"}, {"measurement": "[HDL] Mean CFB - 20 weeks results", "setting": "[26]", "result": 3.77, "unit": "%"}, {"measurement": "[HDL] Median CFB - 10 weeks results", "setting": "[26]", "result": 11.27, "unit": "%"}]}
